# In publication PMC7561186, “Rational design of balanced dual-targeting antibiotics with limited resistance” (PLoS Biology, 2020):
# Read-outs that look alike come from different tables or passages of the source.
# Test system: S. aureus clinical isolates
# Assay: microbe, parasite or virus in culture
# Type: cell-based
# Conditions: Staphylococcus aureus, read-out: MIC
smiles,measurement,setting,value
C[C@H]1COc2c(N3CCN(C)CC3)c(F)cc3c(=O)c(C(=O)O)cn1c23 [Levofloxacin],MIC,"MRSA, S. aureus IHMA 1621638, MRSA / VSSA",0.25 µg/mL
same,MIC,"MRSA, S. aureus IHMA 1622252, MRSA / VSSA",16 µg/mL
same,MIC,"MRSA, S. aureus IHMA 1622527, MRSA / VSSA",0.25 µg/mL
same,MIC,"MRSA, S. aureus IHMA 1666371, MRSA / VSSA",> 64 µg/mL
same,MIC,"MRSA, S. aureus IHMA 1695391, MRSA / VSSA",> 64 µg/mL
same,MIC,"MRSA, S. aureus IHMA 1703428, MRSA / VSSA",0.25 µg/mL
same,MIC,"MRSA, S. aureus IHMA 1720350, MRSA / VSSA",0.25 µg/mL
same,MIC,"MRSA, S. aureus IHMA 1732989, MRSA / VSSA",64 µg/mL
same,MIC,"MRSA, S. aureus IHMA 1742231, MRSA / VSSA",> 64 µg/mL
same,MIC,"MRSA, S. aureus IHMA 1766357, MRSA / VSSA",16 µg/mL
same,MIC,"MSSA / NRS 12 / VISA, S. aureus IHMA 1308244, NRS12, MSSA / VISA",0.5 µg/mL
same,MIC,"MSSA / NRS 13 / VISA, S. aureus IHMA 1308245, NRS13, MSSA / VISA",0.5 µg/mL
same,MIC,"MSSA / NRS 14 / VISA, S. aureus IHMA 1308246, NRS14, MSSA / VISA",0.5 µg/mL
same,MIC,"MSSA / NRS 17 / VISA, S. aureus IHMA 1308247, NRS17, MSSA / VISA",16 µg/mL
same,MIC,"MSSA / NRS 28 / VISA, S. aureus IHMA 1308249, NRS28, MSSA / VISA",32 µg/mL
same,MIC,"MSSA / NRS 52, S. aureus IHMA 1308252, NRS52, MSSA / VSSA* (*Expected VAN intermediate, confirmed VAN susceptible twice), test date 2018-11-07",0.25 µg/mL
same,MIC,"MSSA / USA100 / VRSA, S. aureus IHMA 672236, VRS6, MSSA / VRSA, USA100",32 µg/mL
same,MIC,"MSSA, S. aureus IHMA 1563826, MSSA / VSSA",0.25 µg/mL
same,MIC,"MSSA, S. aureus IHMA 1565492, MSSA / VSSA",0.25 µg/mL
same,MIC,"MSSA, S. aureus IHMA 1569499, MSSA / VSSA",0.25 µg/mL
same,MIC,"MSSA, S. aureus IHMA 1569754, MSSA / VSSA",16 µg/mL
same,MIC,"MSSA, S. aureus IHMA 1574202, MSSA / VSSA",0.25 µg/mL
same,MIC,"MSSA, S. aureus IHMA 1575652, MSSA / VSSA",0.25 µg/mL
same,MIC,"MSSA, S. aureus IHMA 1575779, MSSA / VSSA",0.25 µg/mL
same,MIC,"MSSA, S. aureus IHMA 1576329, MSSA / VSSA",0.25 µg/mL
same,MIC,"MSSA, S. aureus IHMA 1577800, MSSA / VSSA",0.25 µg/mL
same,MIC,"MSSA, S. aureus IHMA 1578560, MSSA / VSSA",0.25 µg/mL
same,MIC,"MSSA, S. aureus IHMA 1580233, MSSA / VSSA",0.25 µg/mL
same,MIC,"MSSA, S. aureus IHMA 1580925, MSSA / VSSA",0.25 µg/mL
same,MIC,"MSSA, S. aureus IHMA 1580955, MSSA / VSSA",0.25 µg/mL
same,MIC,"MSSA, S. aureus IHMA 1582586, MSSA / VSSA",0.5 µg/mL
same,MIC,"MSSA, S. aureus IHMA 1582691, MSSA / VSSA",0.25 µg/mL
same,MIC,"MSSA, S. aureus IHMA 1584230, MSSA / VSSA",0.25 µg/mL
same,MIC,"MSSA, S. aureus IHMA 1587279, MSSA / VSSA",0.25 µg/mL
same,MIC,"MSSA, S. aureus IHMA 1591459, MSSA / VSSA",16 µg/mL
same,MIC,"MSSA, S. aureus IHMA 1592749, MSSA / VSSA",0.25 µg/mL
same,MIC,"MSSA, S. aureus IHMA 1592751, MSSA / VSSA",0.25 µg/mL
same,MIC,"MSSA, S. aureus IHMA 1594297, MSSA / VSSA",0.25 µg/mL
same,MIC,"MSSA, S. aureus IHMA 1597120, MSSA / VSSA",0.25 µg/mL
same,MIC,"MSSA, S. aureus IHMA 1597125, MSSA / VSSA",0.25 µg/mL
same,MIC,"MSSA, S. aureus IHMA 1599157, MSSA / VSSA",0.25 µg/mL
same,MIC,"MSSA, S. aureus IHMA 1599506, MSSA / VSSA",0.25 µg/mL
same,MIC,"MSSA, S. aureus IHMA 1602078, MSSA / VSSA",32 µg/mL
same,MIC,"MSSA, S. aureus IHMA 1604586, MSSA / VSSA",0.25 µg/mL
same,MIC,"MSSA, S. aureus IHMA 1604609, MSSA / VSSA",0.25 µg/mL
same,MIC,"MSSA, S. aureus IHMA 1609919, MSSA / VSSA",0.25 µg/mL
same,MIC,"MSSA, S. aureus IHMA 1622864, MSSA / VSSA",0.25 µg/mL
same,MIC,"MSSA, S. aureus IHMA 1626392, MSSA / VSSA",0.25 µg/mL
same,MIC,"MSSA, S. aureus IHMA 1713793, MSSA / VSSA",0.25 µg/mL
